Patent US7642277B2, “Non-nucleoside reverse transcriptase inhibitors” (Boehringer Ingelheim International GmbH, priority 2002, dated 2010)

Experiments:
[1] = biological target: T1, HIV-1 RT enzyme (wild type) (Human immunodeficiency virus type 1 group M subtype B, UniProt P04585); assay: Reverse transcriptase (RT) enzymatic assay (IC50), PicoGreen fluorescence, wild type; format: biochemical; conditions: RT enzymatic assay, wild type; read-out: IC50 WT
T1 construct: The reverse transcriptase (RT) enzyme assay has been adapted to a 96-well microtiter plate format
Method: (§1) Reverse Transcriptase (RT) Assays Enzymatic Assay (IC50)
The enzymatic assay employed is described as follows: The reverse transcriptase (RT) enzyme assay has been adapted to a 96-well microtiter plate format and uses PicoGreen™ as a fluorescent intercalator. More explicitly, the HIV-1 RT enzyme was thawed and appropriately diluted into Tris/HCl 50 mM pH 7.8 containing NaCl 60 mM, MgCl2∘6H2O 2 mM, DTT 6 mM, GSH 2 mM and 0.02% w/v Chaps to give ≈10 nM enzyme. […] The plate was pre-incubated for 15 minutes at room temperature before proceeding to the next step. […] Then the enzymatic reaction was initiated by addition of 20 μL of substrate solution. […] After addition of the substrate cocktail, the plate was covered with a plastic seal and incubated for 50 minutes at 37° C. in a dry incubator. The reaction was then quenched by addition of 5 μL of EDTA 0.5 M. The plate was shaken for 30 seconds at medium speed and incubated for 5 minutes at room temperature. Then 160 μL of PicoGreen™ 1:400 dilution from commercial stock (diluted in Tris 20 mM pH 7.5 with EDTA 1 mM) was added and the plate was shaken for 30 seconds and incubated for 10 minutes at room temperature. […] Each row contained at its extremities a blank and a control well.
(§2) Table legend: A=>100; B=100-50; C=<50; NT=not tested

[2] = biological target: T2, HIV-1 RT resistant mutant K103N/Y181C (Human immunodeficiency virus type 1 group M subtype B, UniProt P04585, K690N/Y768C); assay: Reverse transcriptase (RT) enzymatic assay (IC50), PicoGreen fluorescence, resistant mutant; format: biochemical
T2 construct: The reverse transcriptase (RT) enzyme assay has been adapted to a 96-well microtiter plate format
Method: as §1
The enzymatic assay employed is described as follows: The reverse transcriptase (RT) enzyme assay has been adapted to a 96-well microtiter plate format and uses PicoGreen™ as a fluorescent intercalator. More explicitly, the HIV-1 RT enzyme was thawed and appropriately diluted into Tris/HCl 50 mM pH 7.8 containing NaCl 60 mM, MgCl2∘6H2O 2 mM, DTT 6 mM, GSH 2 mM and 0.02% w/v Chaps to give ≈10 nM enzyme. To 10 μL of this enzyme solution was added 10 μL of inhibitor solution (40 μM to […] inhibitor in the same assay buffer as above containing 4% v/v DMSO). The plate was pre-incubated for 15 minutes at room temperature before proceeding to the next step. In this pre-incubation step, the highest and lowest inhibitor concentrations were 20 μM and 1.016 nM respectively and the concentration of DMSO was 2% v/v. Then the enzymatic reaction was initiated by addition of 20 μL of substrate solution. The final reaction mixture contained Tris/HCl 50 mM pH 7.8, NaCl 60 mM, MgCl2∘6H2O 2 mM, DTT 6 mM, GSH 2 mM, CHAPS 0.02% w/v, DMSO 1% v/v, poly rC 45 nM, dG15 4.5 nM, dGTP 3.6 μM, and ≈2.5 nM enzyme. In this incubation step, the highest and lowest inhibitor concentrations were 10 μM and 0.508 nM respectively. After addition of the substrate cocktail, the plate was covered with a plastic seal and incubated for 50 minutes at 37° C. in a dry incubator. The reaction was then quenched by addition of 5 μL of EDTA 0.5 M. The plate was shaken for 30 seconds at medium speed and incubated for 5 minutes at room temperature. Then 160 μL of PicoGreen™ 1:400 dilution from commercial stock (diluted in Tris 20 mM pH 7.5 with EDTA 1 mM) was added and the plate was shaken for 30 seconds and incubated for 10 minutes at room temperature. The plate was then analyzed using a POLARstar Galaxy fluorimeter (BMG Labtechnologies) with λex and λem of 485 nm and 520 nm respectively. […] Each row contained at its extremities a blank and a control well.
as §2

[3] = test system: HIV-1 (wild type) in C8166 LTRluc cells; assay: C8166 HIV-1 luciferase assay (EC50), wild type; format: cell-based; conditions: Human immunodeficiency virus 1, C8166 HIV-1 luciferase assay (no *)
Excerpt: (§3) C8166 HIV-1 Luciferase Assay (EC50)
(§4) Plasmid: pGL3 Basic LTR/TAR #12
Plasmid is the pGL3 Basic Vector (a promoterless luciferase expression vector from Promega catalogue #E1751) with the addition of HIV-1 H×B2 LTR sequence from nucleotide −138 to +80 (Sca1-HindIII) upstream of the luciferase gene and the gene for blasticidine resistance cloned in.
(§5) C8166 cells are a human T-lymphotrophic virus type 1 immortalized but nonexpressing line of cord blood lymphocytes and are highly permissive to HIV-1 infection. The reporter cells were made by electroporating C8166 cells with pGL3 Basic LTR/TAR and then selecting positive clones with blasticidine. The clone C8166-LTRluc #A8-F5-G7 was selected by 3 consecutive rounds of limiting dilution under blasticidine selection.
(§6) Media: Complete media consisting of: RPMI 1640+10% FBS+10^−5 M
(§7) β-mercaptoethanol+10 μg/ml gentamycin. Cultures are maintained in complete media with 5 μg/ml blasticidine, however, selection is removed for the assay.
(§8) Luciferase Assay Protocol
(§9) Serial dilutions of HIV-1 inhibitors compounds are prepared in complete media from 10 mM DMSO stock solutions. Eleven serial dilutions of 2.5× are made at 8× desired final concentration in a 1 ml deep well titer plate (96 wells). The 12th well contains complete media with no inhibitor and serves as the positive control. All samples contain the same concentration of DMSO (≦0.1% DMSO). A 25 μl aliquot of inhibitor is added, to triplicate wells, of a 96 well tissue culture treated clear view black microtiter plate (Corning Costar catalogue # 3904). The last row is reserved for uninfected C8166 LTRluc cells to serve as the background blank control and the first row is media alone.
(§10) Count C8166 LTRluc cells and place in a minimal volume of complete RPMI 1640 in a tissue culture flask (ex. 30×10^6 cells in 10 ml media/25 cm^2 flask). Infect cells with HIV-1 at a moi of 0.005. Incubate cells for 1.5 hours at 37° C. on a rotating rack in a 5% CO2 incubator. Resuspend cells in complete RPMI to give a final concentration of 25,000-cells/175 μl. Add 175 μl of cell mix to wells of 96 well microtiter plate containing 25 μl 8× inhibitors. Add 25,000 uninfected C8166-LTRluc cells/well in 200 μl complete RPMI to last row for background control. Incubate cells at 37° C. in 5% CO2 incubator for 3 days.
(§11) Add 50 μl Steady Glo (luciferase substrate T1/2=5 hours Promega catalogue # E2520) to each well of the 96 well plate. Determine the relative light units (RLU) of luciferase using the BMG LUMlstar Galaxy luminometer. Plates are read from the bottom for 2 seconds per well with a gain of 240.
(§12) The level of inhibition (% inhibition) of each well containing inhibitor was calculated with the following equation: […]
The calculated % inhibition values were then used to determine EC50, slope factor (n) and maximum inhibition (Imax) by the non-linear regression routine NLIN procedure of SAS using the following equation: […]
The results are listed in Table 9 as IC50(nM) and EC50 (nM).
as §2

[4] = test system: HIV-1 resistant mutant K103N/Y181C in C8166 LTRluc cells; assay: C8166 HIV-1 luciferase assay (EC50), resistant mutant; format: cell-based; conditions: Human immunodeficiency virus 1, C8166, read-out: EC50 K103N/Y181C
Excerpt: as §3, §4, §5, §6, §7, §8
as §9, with “Eleven” for “Serial dilutions of HIV-1 inhibitors compounds are prepared in complete media from 10 mM DMSO stock solutions. Eleven”
as §10, with “Infect cells with HIV-1 at a moi of 0.005.” left out
as §11, §12
The calculated % inhibition values were then used to determine EC50, slope factor (n) and maximum inhibition (Imax) by the non-linear regression routine NLIN procedure of SAS using the following equation:
as §2

Row | SMILES | IC50 [1] [µM] | IC50 [2] [µM] | EC50 [3] [µM] | EC50 [4] [µM]
1 | O=C(CSc1nnnn1-c1ccccc1)Nc1ccccc1[N+](=O)[O-] [Entry 108] | > 0.1 | > 0.1 | – | –
2 | CCc1ccccc1-n1nnnc1SCC(=O)Nc1ccccc1[N+](=O)[O-] [Entry 110] | > 0.1 | > 0.1 | – | –
3 | CC(C)c1ccccc1-n1nnnc1SCC(=O)Nc1ccccc1[N+](=O)[O-] [Entry 112] | > 0.1 | > 0.1 | – | –
4 | O=C(CSc1nnnn1-c1cccc(Cl)c1)Nc1ccccc1[N+](=O)[O-] [Entry 119] | > 0.1 | > 0.1 | – | –
5 | O=C(CSc1nnnn1-c1ccc(Cl)cc1Cl)Nc1ccccc1[N+](=O)[O-] [Entry 126] | > 0.1 | > 0.1 | – | –
6 | O=C(CSc1nnnn1-c1ccc(Cl)c(C(F)(F)F)c1)Nc1ccccc1[N+](=O)[O-] [Entry 137] | > 0.1 | > 0.1 | – | –
7 | CC(C)c1ccc(-n2nnnc2SCC(=O)Nc2ccccc2[N+](=O)[O-])cc1 [Entry 142] | – | > 0.1 | < 0.05 | > 0.1
8 | CCN(CC)c1ccc(-n2nnnc2SCC(=O)Nc2ccccc2[N+](=O)[O-])cc1 [Entry 143] | – | > 0.1 | < 0.05 | > 0.1
9 | O=C(CSc1nnnn1-c1cccc2ccccc12)Nc1ccccc1 [Entry 201] | > 0.1 | > 0.1 | – | –
10 | Cc1ccccc1NC(=O)CSc1nnnn1-c1cccc2ccccc12 [Entry 202] | > 0.1 | > 0.1 | – | –
11 | O=C(CSc1nnnn1-c1cccc2ccccc12)Nc1ccccc1Cl [Entry 208, N-(2-Chlorophenyl)-2-{{1-(1-naphthalenyl)-1H-tetrazol-5-yl}thio}acetamide] | – | – | < 0.05 | > 0.1
12 | O=C(CSc1nnnn1-c1cccc2ccccc12)Nc1ccccc1O [Entry 211] | > 0.1 | – | < 0.05 | > 0.1
13 | COc1ccc(NC(=O)CSc2nnnn2-c2cccc3ccccc23)c(Cl)c1 [Entry 237] | < 0.05 | > 0.1 | < 0.05 | –
14 | Cc1ccc(C)c(NC(=O)CSc2nnnn2-c2cccc3ccccc23)c1 [Entry 240] | > 0.1 | > 0.1 | – | –
15 | OC(COc1ccccc1Cl)CSc1nnnn1-c1cccc2ccccc12 (stereo not shown) [Entry 325] | > 0.1 | > 0.1 | – | –
16 | O=C(CSc1ccccc1-c1cccc2ccccc12)Nc1ccccc1Cl [Entry 406, 2-{{2-(1-Naphthalenyl)phenyl}thio}-N-(2-chorophenyl)acetamide] | < 0.05 | > 0.1 | > 0.1 | –
17 | O=C(CSc1nc2ccccc2n1-c1cccc2ccccc12)Nc1ccccc1[N+](=O)[O-] [Entry 411] | > 0.1 | > 0.1 | – | –
18 | O=C(COc1ccccc1-c1ccccc1)Nc1ccccc1[N+](=O)[O-] [Entry 413] | > 0.1 | > 0.1 | – | –
19 | COC(=O)c1ccc(NC(=O)CSc2ccccc2-c2ccc(C)cc2Cl)c(Cl)c1 [Entry 418] | < 0.05 | > 0.1 | 0.05 to 0.1 | –
20 | Cc1ccc(-c2ccccc2SCC(=O)Nc2ccc(C(=O)O)cc2Cl)c(Cl)c1 [Entry 419] | < 0.05 | > 0.1 | 0.05 to 0.1 | –
21 | CCc1nnc(SCC(=O)Nc2ccccc2[N+](=O)[O-])n1-c1cccc2ccccc12 [Entry 425] | – | > 0.1 | < 0.05 | > 0.1
22 | Cc1ccc(-n2c(C)nnc2SCC(=O)Nc2ccccc2[N+](=O)[O-])c(Cl)c1 [Entry 427] | – | > 0.1 | < 0.05 | > 0.1
23 | Cc1ccc(-n2c(C)nnc2SCC(=O)Nc2ccc(-c3ccccc3)cc2Cl)c(Cl)c1 [Entry 428] | – | > 0.1 | < 0.05 | > 0.1
24 | Cc1ccc(-n2nnnc2SCC(=O)Nc2ccccc2Cl)c(Cl)c1 [Entry 501] | – | – | < 0.05 | > 0.1
25 | Cc1ccc(NC(=O)CSc2nnnn2-c2ccc(C)cc2Cl)c(Cl)c1 [Entry 502] | < 0.05 | > 0.1 | < 0.05 | –
26 | COC(=O)c1ccc(NC(=O)CSc2nnnn2-c2ccc(C)cc2Cl)c([N+](=O)[O-])c1 [Entry 506] | < 0.05 | > 0.1 | – | –
27 | CC(C)(C)c1ccc(-n2nnnc2SCC(=O)Nc2ccc(S(C)(=O)=O)cc2Cl)c(Cl)c1 [Entry 603] | – | – | < 0.05 | < 0.05
28 | Cc1ccc(-n2nnnc2SCC(=O)Nc2ccccc2Cl)c(Br)c1 [Entry 701] | < 0.05 | > 0.1 | – | –
